Experimental data reported in patent US20250224398A1, “GASDERMIN E EXPRESSION IN HUMAN T CELLS AS A MARKER FOR PROINFLAMMATORY T CELL FUNCTIONS” (LEIBNIZ-INSTITUT FÜR NATURSTOFF-FORSCHUNG UND …, priority 2022, published 2025).
Entries after “also recorded” stand apart in the source; their conditions may differ. Residues, ends and D or L forms follow the SMILES beside them. *: point of attachment. Cbz = O=C(OCc1ccccc1)*; CH2F = FC*

What was measured:
[1] = test system: patients suffering from the rare autoinflammatory Schnitzler syndrome; test: Treatment of Schnitzler syndrome patients with IL-1β-neutralizing antibody; IL-1α secretion of ex vivo Th17 cell clones (Luminex) and clinical symptoms; assay type: in vivo, human; conditions: treatment for 6 months; Th17 cell clones restimulated with CD3 and CD28 mAbs for 5 days
Protocol: Peripheral blood mononuclear cells (PBMCs) were isolated by density gradient centrifugation using Ficoll-Paque Plus (GE Healthcare). CD4^+ T cells were isolated from fresh PBMC by positive selection with CD4-specific MicroBeads (Miltenyi Biotec) using an autoMACS Pro Separator. […]
Intracellular cytokine and transcription factor staining was performed as described before (Noster, R. et al. IL-17 and GM-CSF expression are antagonistically regulated by human T helper cells. Sci Transl Med 6, 241ra280, doi: 10.1126/scitranslmed.3008706 (2014)). […] Then, they were analyzed with a BD LSRFortessa (BD Biosciences), a CytoFLEX Flow Cytometer (Beckman Coulter) or a MACSQuant analyzer (Miltenyi Biotec). Flow cytometry data were analyzed with FlowJo software (Tree Star) or with Cytobank (Cytobank Inc.). The concentrations of cytokines in cell culture supernatants were measured by ELISA (Duoset ELISA kits from R&D Systems, Human Caspase-1SimpleStep ELISA Kit (Abcam) or by Luminex (eBioscience) according to standard protocols as indicated in the corresponding figure legends. Counting beads (CountBright™ Absolute Counting Beads, Thermo Fisher Scientific) were used to normalize for cell numbers if analysis of cumulative supernatants obtained from 5-day cell cultures was performed. […]

[2] = test system: patients suffering from the rare autoinflammatory Schnitzler syndrome; conditions: treatment for 6 months; cited from earlier work
SGC-7901 and MKN-45 = conditions: cited from earlier work
human Th17 cells [3] = test: Cytokine secretion by stimulated Th17 cells into culture supernatants (ELISA / Luminex); assay type: cell-based; conditions: for IL-1α secretion by Th17 cells: Th17 cells stimulated with anti-CD3 and anti-CD28 mAbs for 5 days, ELISA of supernatants
Protocol: (§1) Human T cells were cultured in RPMI 1640 medium supplemented with 1% (v/v) GlutaMAX™ Supplement, 1% (v/v) MEM nonessential Amino Acids Solution (100×), 1% (v/v) sodium pyruvate (100 mM), 0.1% 2-Mercaptoethanol (50 mM) (all from Gibco™), 1% (v/v) Penicillin-Streptomycin (Sigma-Aldrich), penicillin (500 U/ml), streptomycin (500 μg/ml), and 10% (v/v) fetal calf serum (Sigma-Aldrich). In some experiments, T cell culture was performed in the presence of recombinant cytokines (IL-6, 50 ng/ml; IL-12, 10 ng/ml; IL-4, 10 ng/ml; TGF-b, 10 ng/ml; IL-1b, 20 ng/ml; all from R&D Systems) or neutralizing antibodies (anti-IL-1a, […], BD Biosciences). […] T cells were stimulated with plate-bound anti-CD3 (2 μg/ml, clone TR66) and anti-CD28 mAbs (2 μg/ml, clone CD28.2; both from BD Biosciences) for 48 h before transfer into uncoated wells for another 3 days for a total culture period of 5 days, unless indicated otherwise in the legends. T cell clones were generated in non-polarizing conditions as described previously following single-cell deposition with fluorescence-activated cell sorting or by limiting dilution cloning (Gross, O. et al. Inflammasome activators induce interleukin-1alpha secretion via distinct pathways with differential requirement for the protease function of caspase-1. Immunity 36, 388-400, doi: 10.1016/j.immuni.2012.01.018 (2012)). Human monocytes were isolated from PBMCs by positive selection with CD14-specific MicroBeads (Miltenyi Biotec). Cells were stimulated with or without 1 μg/mL ultrapure lipopolysaccharide (LPS)-EB (t1r1-3pelps, InvivoGen) for 24 h and nigericin (10 μg/mL, InvivoGen) or ATP (5 mM, Thermo Fisher Scientific) for the last 30 mins. In some experiments, CD14^+ magnetic activated cell sorting (MACS)-sorted monocytes were differentiated into macrophages for 7 days in the presence of GM-CSF (R&D Systems).
Intracellular cytokine and transcription factor staining was performed as described before (Noster, R. et al. IL-17 and GM-CSF expression are antagonistically regulated by human T helper cells. Sci Transl Med 6, 241ra280, doi: 10.1126/scitranslmed.3008706 (2014)). Cells were stained with the following antibodies: anti-IL-1a-PE (364-3B3-14), anti-IL-4-FITC (MP4-25D2 5), anti-IL-17A-Pacific Blue (BL168), anti-IFN-g-APC-Cy7 (4S.B3), anti-IL-10-PE-Cy7 (JES3-9D7), (all from Biolegend), anti-RORgt-APC (AFKJS-9, eBioscience), anti-Ki67-BV421 (Biolegend), and anti-IL-1R1-PE (FAB269P, R&D Systems). Then, they were analyzed with a BD LSRFortessa (BD Biosciences), a CytoFLEX Flow Cytometer (Beckman Coulter) or a MACSQuant analyzer (Miltenyi Biotec). Flow cytometry data were analyzed with FlowJo software (Tree Star) or with Cytobank (Cytobank Inc.). The concentrations of cytokines in cell culture supernatants were measured by ELISA (Duoset ELISA kits from R&D Systems, Human Caspase-1SimpleStep ELISA Kit (Abcam) or by Luminex (eBioscience) according to standard protocols as indicated in the corresponding figure legends. Counting beads (CountBright™ Absolute Counting Beads, Thermo Fisher Scientific) were used to normalize for cell numbers if analysis of cumulative supernatants obtained from 5-day cell cultures was performed.

human Th17 cells [4] = test: Western blot / Jess Simple Western of Th17 cell lysates for caspase and GSDME cleavage; assay type: cell-based; conditions: for GSDME cleavage / caspase-3 cleavage: Th17 cells stimulated 5 days with anti-CD3 and anti-CD28 mAbs
Protocol: as §1
Cells were lysed in RIPA buffer (50 mM Tris, 150 mM NaCl, 1 mM EDTA, 0.1% NP-40, pH 7.5) containing protease inhibitor (Roche) and PhosphoSTOP Easypack (Roche). The protein concentrations of cell lysates were determined with a Pierce™ BCA Protein Assay Kit (Thermo Fisher Scientific™). Total protein ([…]) was boiled with 4× Laemmli sample buffer (Bio-Rad Laboratories) containing 355 mM 2-mercaptoethanol (Thermo Fisher Scientific) at 99° C. for 10 min. The supernatants and lysates were separated by SDS-polyacrylamide gel electrophoresis (PAGE) and transferred to a PVDF membrane (Bio-Rad Laboratories) by using a Mini-Protean system (Bio-Rad Laboratories) according to the manufacturer's protocol. The following primary antibodies were used for immunoblotting: mouse anti-human caspase-8 (Cell Signaling Technology), rabbit anti-human caspase-1 (Cell Signaling Technology), rabbit anti-human IL-1α (Abcam), mouse anti-human GAPDH (Merck millipore), mouse anti-human b-actin (Cell Signaling Technology), and rabbit anti-human gasdermin E (Abcam), rabbit anti-human caspase-3 (Cell Signaling Technology), mouse anti-human caspase-8 (Cell Signaling Technology), rabbit anti-human gasdermin D (Cell Signaling Technology), rabbit anti-human cleaved gasdermin D (Cell Signaling Technology), rabbit anti-NLRP3 (Cell Signaling Technology). HRP-conjugated anti-mouse and anti-rabbit IgG antibodies (Cell Signaling Technology) were used as secondary antibodies. Immunoreactive bands were detected by Pierce™ ECL Western Blotting Substrate or SuperSignal™ West Femto Maximum Sensitivity Substrate (both from Thermo Scientific™). Chemiluminescence signals were recorded with an Odyssey Imaging system (LI-COR Biosciences) and analyzed on Image Studio™ Lite (LI-COR Biosciences). Image contrast was enhanced in a linear fashion when necessary. Protein lysates were also prepared for automated Western blotting using a Jess System (ProteinSimple) according to the manufacturer's instructions. […]

human monocytes = test: IL-1a secretion by LPS/nigericin stimulated monocytes (ELISA); assay type: cell-based; conditions: LPS 24 h, nigericin 30 min
Protocol: as §1, with “Human monocytes were isolated from PBMCs by positive selection with CD14-specific MicroBeads (Miltenyi Biotec). Cells were stimulated with or without 1 μg/mL ultrapure lipopolysaccharide (LPS)-EB (t1r1-3pelps, InvivoGen) for 24 h and nigericin (10 μg/mL, InvivoGen) or ATP (5 mM, Thermo Fisher Scientific) for the last 30 mins. In some experiments, CD14^+ magnetic activated cell sorting (MACS)-sorted monocytes were differentiated into macrophages for 7 days in the presence of GM-CSF (R&D Systems).” left out

human Th17 cells [5] = test: Intracellular cytokine staining and flow cytometry of Th17 cells; assay type: cell-based
Protocol: as §1, with “In some experiments, CD14^+ magnetic activated cell sorting (MACS)-sorted monocytes were differentiated into macrophages for 7 days in the presence of GM-CSF (R&D Systems).” left out
Intracellular cytokine and transcription factor staining was performed as described before (Noster, R. et al. IL-17 and GM-CSF expression are antagonistically regulated by human T helper cells. Sci Transl Med 6, 241ra280, doi: 10.1126/scitranslmed.3008706 (2014)). […] Then, they were analyzed with a BD LSRFortessa (BD Biosciences), a CytoFLEX Flow Cytometer (Beckman Coulter) or a MACSQuant analyzer (Miltenyi Biotec). Flow cytometry data were analyzed with FlowJo software (Tree Star) or with Cytobank (Cytobank Inc.). The concentrations of cytokines in cell culture supernatants were measured by ELISA (Duoset ELISA kits from R&D Systems, Human Caspase-1SimpleStep ELISA Kit (Abcam) or by Luminex (eBioscience) according to standard protocols as indicated in the corresponding figure legends. Counting beads (CountBright™ Absolute Counting Beads, Thermo Fisher Scientific) were used to normalize for cell numbers if analysis of cumulative supernatants obtained from 5-day cell cultures was performed.

[6] = Th17 cells, restimulation with PMA and ionomycin in presence or absence of BFA
[7] = anti-CD3 and anti-CD28 mAb 5 days, PMA and ionomycin restimulation

For “gevokizumab: IL-1β-neutralizing antibody”, the “IL-1α production by Th17 cells of Schnitzler syndrome patients” value [1] is given as “significant reduction” and the clinical symptoms [2] is given as “complete resolution”.

For `O=c1[nH]cc(F)c(=O)[nH]1` [5-FU], the cell viability (SGC-7901 and MKN-45; SGC-7901 and MKN-45 treated with 5-FU) is listed as “significantly decreased”, the “percentage of PI and APC Annexin-V double positive cells” value (SGC-7901 and MKN-45; after 5-FU treatment compared to control group) is listed as “elevated” and the “release of LDH” value (SGC-7901 and MKN-45) is listed as “elevated”.

With `CC(C)(O)c1coc(S(=O)(=O)NC(=O)Nc2c3c(cc4c2CCC4)CCC3)c1` [MCC950] the “IL-1α secretion by Th17 cells” value (human Th17 cells [3]) was “significantly reduced; also recorded: significantly inhibited”, the GSDME cleavage (human Th17 cells [4]) was “significant reduction” and the caspase-3 cleavage (human Th17 cells [4]) was “significant reduction”. For the same molecule, the caspase-8 cleavage (human Th17 cells [4]; Th17 cells stimulated, day 5) was “less pronounced”.

In the case of `CC[C@H](C)[C@H](NC(=O)OCc1ccccc1)C(=O)N[C@@H](CCC(=O)OC)C(=O)N[C@H](C(=O)N[C@@H](CC(=O)OC)C(=O)CF)[C@@H](C)O` [Z-IETD-FMK] (Cbz-IE(OMe)TD(OMe)-CH2F), the “IL-1α secretion by Th17 cells” value (human Th17 cells [3]) is reported as “abrogating”, the GSDME cleavage (human Th17 cells [4]) is reported as “reduced” and the caspase-3 cleavage (human Th17 cells [4]) is reported as “abrogation”.

In the case of `CSCC[C@@H](C=O)NC(=O)[C@H](CC(C)C)NC(=O)[C@H](CC(C)C)NC(C)=O` [calpain inhibitor, N-Acetyl-L-leucyl-L-leucyl-L-methioninal] (Ac-Leu-Leu-Met-aldehyde), the “LPS/nigericin-induced IL-1a secretion by monocytes” value (human monocytes) is reported as “not dependent on calpain” and the “IL-1α secretion by Th17 cells” value (human Th17 cells [3]) is reported as “dose-dependent reduction”.

In the case of `CC(=O)N[C@@H](Cc1ccc(O)cc1)C(=O)N[C@H](C(=O)N[C@@H](C)C(=O)N[C@@H](CC(=O)O)C(=O)CCl)C(C)C` [Ac-YVAD-CMK], the “IL-1α secretion by Th17 cells” value (human Th17 cells [3]) is reported as “did not inhibit; also recorded: significantly elevated”.

For `COC(=O)CC[C@H](NC(=O)[C@H](CC(=O)OC)NC(=O)OCc1ccccc1)C(=O)N[C@H](C(=O)N[C@@H](CC(=O)OC)C(=O)CF)C(C)C` [Z-DEVD-FMK], the “IL-1α secretion by Th17 cells” value (human Th17 cells [3]) was “abrogating” and the GSDME cleavage (human Th17 cells [4]) was “reduced”.

In the case of `C/C=C(/C)C(=O)O[C@H]1C(C)=C2[C@H]([C@@H]1OC(=O)CCCCCCC)[C@@](C)(OC(C)=O)C[C@H](OC(=O)CCC)[C@@]1(O)[C@H]2OC(=O)[C@@]1(C)O` [thapsigargin], the “IL-1α secretion by Th17 cells” value (human Th17 cells [3]) is reported as “increased”.

In the case of “canakinumab: IL-1β-neutralizing antibody”, the “IL-1α production by Th17 cells of Schnitzler syndrome patients” value [1] is given as “significant reduction” and the clinical symptoms [2] is given as “complete resolution”.

In the case of `C[C@H]1CCC/C=C/[C@@H]2C[C@H](O)C[C@H]2[C@H](O)/C=C/C(=O)O1` [BFA, brefeldin A], the “secretion of IL17A into the extracellular space” value (human Th17 cells [3]; [6]) is reported as “reduced” and the “intracellular IL-1α expression” value (human Th17 cells [5]; [6]) is reported as “not influenced”.

B1: recombinant IL-1α: recombinant IL-1α applied exogenously to Th17 cells (protein, UniProt P01583 113-271, looked up)
Interleukin-1 alpha: SAPFSFLSNVKYNFMRIIKYEFILNDALNQSIIRANDQYLTAAALHNLDEAVKFDMGAYKSSKDDAKITVILRISKTQLYVTAQDEDQPVLLKEMPEIPKTITGSETNLLFFWETHGTKNYFTSVAHPNLFIATKQDYWVCLAGGPPSITDFQILENQA
For B1, the “IFN-γ expression by Th17 cells” value (human Th17 cells [5]; [7]) was “upregulation”, the “IL-10 expression by Th17 cells” value (human Th17 cells [5]; [7]) was “reduced” and the “IL-17A expression by Th17 cells” value (human Th17 cells [5]; [7]) was “upregulation”.
